Results: ChEMBL document CHEMBL1649201, “VanB-type Enterococcus faecium clinical isolate successively inducibly resistant to, dependent on, and constitutively resistant to vancomycin” (2009)
≈ marks a conversion by molar mass, not a printed value.

Columns and labels:
[1] = molecular target: T1, D,D-dipeptidase (Enterococcus faecium) (UniProt Q9EYV8); assay: Activity of D,D-dipeptidase in vancomycin-dependent VanB-type Enterococcus faecium BM4660 assessed as enzyme mediated D-Alanine release per mg protein at 8 ug/ml
T1 sequence (whole entry): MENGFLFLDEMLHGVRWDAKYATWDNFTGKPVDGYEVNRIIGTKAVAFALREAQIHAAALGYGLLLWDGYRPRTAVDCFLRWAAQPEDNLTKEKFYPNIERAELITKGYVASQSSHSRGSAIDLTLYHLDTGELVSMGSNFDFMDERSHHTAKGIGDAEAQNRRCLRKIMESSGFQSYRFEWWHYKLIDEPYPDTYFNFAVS

[2] = molecular target: T1, D,D-dipeptidase (Enterococcus faecium); assay: Activity of D,D-dipeptidase in vancomycin-revertant and teicoplanin-sensitive VanB-type Enterococcus faecium BM4661 assessed as enzyme mediated D-Alanine release per mg protein at 8 ug/ml
Enterococcus faecium [3] = assay: Antimicrobial activity against vancomycin-resistant and teicoplanin-sensitive VanB-type Enterococcus faecium BM4659; type: functional
Enterococcus faecium [4] = assay: Antimicrobial activity against vancomycin-dependent VanB-type Enterococcus faecium BM4660; type: functional
[5] = molecular target: T2, D,D-carboxypeptidase (Enterococcus faecium) (UniProt Q7BI95); assay: Activity of D,D-carboxypeptidase in vancomycin-dependent VanB-type Enterococcus faecium BM4660 membrane fraction assessed as enzyme mediated D-Alanine release per mg protein at 8 ug/ml
T2 sequence (whole entry): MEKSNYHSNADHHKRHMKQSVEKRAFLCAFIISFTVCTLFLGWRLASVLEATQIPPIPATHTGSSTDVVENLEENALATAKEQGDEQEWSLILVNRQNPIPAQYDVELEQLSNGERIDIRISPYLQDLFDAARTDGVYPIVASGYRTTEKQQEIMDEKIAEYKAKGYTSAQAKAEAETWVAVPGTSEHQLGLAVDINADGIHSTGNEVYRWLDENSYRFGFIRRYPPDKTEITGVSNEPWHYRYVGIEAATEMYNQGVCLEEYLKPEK

[6] = molecular target: T1, D,D-dipeptidase (Enterococcus faecium); assay: Activity of D,D-dipeptidase in vancomycin-resistant and teicoplanin-sensitive VanB-type Enterococcus faecium BM4659 assessed as enzyme mediated D-Alanine release per mg protein at 8 ug/ml
[7] = molecular target: T2, D,D-carboxypeptidase (Enterococcus faecium); assay: Activity of D,D-carboxypeptidase in vancomycin-revertant and teicoplanin-sensitive VanB-type Enterococcus faecium BM4661 membrane fraction assessed as enzyme mediated D-Alanine release per mg protein at 8 ug/ml
[8] = molecular target: T2, D,D-carboxypeptidase (Enterococcus faecium); assay: Activity of D,D-carboxypeptidase in vancomycin-resistant and teicoplanin-sensitive VanB-type Enterococcus faecium BM4659 cytoplasmic fraction assessed as enzyme mediated D-Alanine release per mg protein at 8 ug/ml
[9] = molecular target: T2, D,D-carboxypeptidase (Enterococcus faecium); assay: Activity of D,D-carboxypeptidase in vancomycin-revertant and teicoplanin-sensitive VanB-type Enterococcus faecium BM4661 cytoplasmic fraction assessed as enzyme mediated D-Alanine release per mg protein at 8 ug/ml
[10] = molecular target: T2, D,D-carboxypeptidase (Enterococcus faecium); assay: Activity of D,D-carboxypeptidase in vancomycin-dependent VanB-type Enterococcus faecium BM4660 cytoplasmic fraction assessed as enzyme mediated D-Alanine release per mg protein at 8 ug/ml
Enterococcus faecium [11] = assay: Antimicrobial activity against vancomycin-revertant and teicoplanin-sensitive VanB-type Enterococcus faecium BM4661; type: functional
[12] = molecular target: T2, D,D-carboxypeptidase (Enterococcus faecium); assay: Activity of D,D-carboxypeptidase in vancomycin-resistant and teicoplanin-sensitive VanB-type Enterococcus faecium BM4659 membrane fraction assessed as enzyme mediated D-Alanine release per mg protein at 8 ug/ml

`CN[C@H](CC(C)C)C(=O)N[C@H]1C(=O)N[C@@H](CC(N)=O)C(=O)N[C@H]2C(=O)N[C@H]3C(=O)N[C@H](C(=O)N[C@H](C(=O)O)c4cc(O)cc(O)c4-c4cc3ccc4O)[C@H](O)c3ccc(c(Cl)c3)Oc3cc2cc(c3O[C@@H]2O[C@H](CO)[C@@H](O)[C@H](O)[C@H]2O[C@H]2C[C@](C)(N)[C@H](O)[C@H](C)O2)Oc2ccc(cc2Cl)[C@H]1O` [VANCOMYCIN] was tested, and the Activity [1] was 99 nmol/min/mg, the Activity [2] was 128 nmol/min/mg and the MIC (Enterococcus faecium [3]) was 64 µg/mL (≈ 44.2 µM). For the same compound, the MIC (Enterococcus faecium [4]) was 256 µg/mL (≈ 177 µM), the Activity [5] was 30 nmol/min/mg and the Activity [6] was 255 nmol/min/mg. For the same compound, the Activity [7] was 27 nmol/min/mg, the Activity [8] was 13 nmol/min/mg and the Activity [9] was 4.3 nmol/min/mg. It also gave an Activity [10] of 5.3 nmol/min/mg, an MIC (Enterococcus faecium [11]) of 256 µg/mL (≈ 177 µM) and an Activity [12] of 115 nmol/min/mg.
